Results reported in US20240408064A1, “RAS INHIBITORS, COMPOSITIONS AND METHODS OF USE THEREOF” (GENETOLEAD INC., priority 2021, published 2024).

Tests used:
HRas^G12V [1] = target: T1, HRas^G12V (Homo sapiens (Human), UniProt P01112, G12V); assay: 19F DLB (ligand-observed 19F NMR) score; format: binding; parameters: scale not given here
Procedure: (§1) All NMR experiments were collected using 3 mm NMR tubes on a 600 MHz Bruker Avance III spectrometer equipped with a QCI helium cryoprobe and a SampleJet sample changer. The buffer used for NMR experiments was 25 mM sodium phosphate pH 7.4, 150 mM NaCl, 5 mM MgCl2, 1 mM TCEP-d16, 10% D2O. Data were processed using Bruker TopSpin.
(§2) Since the fragment library was curated using phosphate buffer, 25 mM sodium phosphate pH 7.4, 150 mM NaCl, 5 mM MgCl2, 1 mM TCEP-d16, 10% D2O Fresh TCEP was used for experiments. Screening was performed using ^1H-decoupled 1D ^19F experiment Bruker experiment (zgfhigqn.2) with 64 scans and a relaxation delay of 5 seconds. 50 μM HRas^G12V and 240 μM of each fragment in pools (mixtures) were used.
Hit confirmation was performed using the same ^19F experiment as the screen. Ligand-observed 1D ^1H, protein-observed 1D ^1H, ^1H T2-CPMG as well as Saturation Transfer Difference (STD) experiments were also run on the same samples. Ligand-observed 1D ^1H was run using the standard Bruker sequence with excitation sculpting (zgesgp) with a relaxation delay of 10 seconds and 16 scans per spectrum. Protein-observed 1D ^1H was performed using the same sequence with a relaxation delay of 1 second and 256 scans in order to increase the signal-to-noise of the protein resonances, while keeping the experimental time relatively short. The ^1H T2-CPMG experiment employed a modified version of the Bruker 1D ^1H zgesgp experiment with the addition of a CPMG pulse train after the first 90° excitation pulse. Total duration for each spin echo was fixed at 1 ms (τ=500 μs), while the number of echoes in the pulse train was varied according to the total time (T). The number of scans for each spectrum was 4 and eight delay times were run on each sample, ranging from 1 ms to 800 ms. […]

HRas^G12V [2] = target: T1, HRas^G12V; assay: 19F T2-CPMG NMR score; format: binding
Procedure: as §1, §2
Hit confirmation was performed using the same ^19F experiment as the screen. Ligand-observed 1D ^1H, protein-observed 1D ^1H, ^1H T2-CPMG as well as Saturation Transfer Difference (STD) experiments were also run on the same samples. Ligand-observed 1D ^1H was run using the standard Bruker sequence with excitation sculpting (zgesgp) with a relaxation delay of 10 seconds and 16 scans per spectrum. Protein-observed 1D ^1H was performed using the same sequence with a relaxation delay of 1 second and 256 scans in order to increase the signal-to-noise of the protein resonances, while keeping the experimental time relatively short. The ^1H T2-CPMG experiment employed a modified version of the Bruker 1D ^1H zgesgp experiment with the addition of a CPMG pulse train after the first 90° excitation pulse. Total duration for each spin echo was fixed at 1 ms (τ=500 μs), while the number of echoes in the pulse train was varied according to the total time (T). The number of scans for each spectrum was 4 and eight delay times were run on each sample, ranging from 1 ms to 800 ms.
Because of its power to probe the intrinsically weak interactions (Kd) between targets and low-molecular weight fragments, NMR fragment-based lead discovery (FBLD) is a very useful biophysical method in early stage drug discovery, especially for challenging target proteins; including those with shallow binding pockets. Since FBLD screens are performed using low-molecular weight compounds (fragments) with lower structural complexity, the same chemical space can be covered using a smaller number of drug-like fragments versus use of large libraries of higher-molecular weight lead-like compounds as in high throughput screening (HTS) campaigns. Therefore, FBLD has a much higher hit rate than HTS using only several hundred to several thousand compounds in comparison with approximately 1 million compounds for HTS. Also, the small size of the compounds screened in FBLD means a better chance to fully match the interactions with small or transient pockets within the target protein, where these less tractable pockets cannot be accessed with standard classical HTS methods. […] We expect this methodology to be more advantageous than classical HTS methods for expediting the time from hit to lead (H2L) and allows for rapid access to high quality leads with lower attrition rates in subsequent lead optimization (LO) campaigns toward pre-clinical candidate selection. FBLD screening by NMR involves a “consensus binding” approach where several distinct NMR experiments (DLB, STD, CPMG) are applied along with a free-state aggregation detection method (T2-CPMG) to rank the compounds for their affinity to the receptor (HRAS in this case) whilst simultaneously monitoring the solution behavior and critical quality attributes of each compound. The latter helps to eliminate artifact binders which are highly problematic. We performed a fluorine screen involving 461 compounds that were derived from a highly curated fragment library. Moreover, two-dimensional ^15N HSQC NMR was also used to validate ligand-binding sites on the target protein. […]

T1 sequence (P01112 1-166 G12V): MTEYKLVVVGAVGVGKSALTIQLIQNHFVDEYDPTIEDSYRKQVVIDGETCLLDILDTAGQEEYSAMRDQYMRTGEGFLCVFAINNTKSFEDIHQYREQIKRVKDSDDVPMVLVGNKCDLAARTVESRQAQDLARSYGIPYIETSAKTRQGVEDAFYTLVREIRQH

19F DLB Score (HRas^G12V [1]) | 19F T2-CPMG Score (HRas^G12V [2]) | SMILES
1.54 | 10.14 | CN1CCC(NC(=O)Cc2c[nH]c3cc(F)ccc23)C(C(=O)O)C1 (centres unmarked) [Compound 10117, 4-(2-(6-fluoro-1H-indol-3-yl)acetamido)-1-methylpiperidine-3-carboxylic acid]
2.34 | 13.94 | O=C(Cc1c[nH]c2cc(F)ccc12)N1CCCC(O)C1 (centres unmarked) [Compound 10120]
1.68 | 9.62 | O=C(Cc1c[nH]c2cc(F)ccc12)N1C[C@H]2CC[C@@H](C1)O2 [Compound 10122]
1.82 | 12.49 | COC(C)C1CN(C(=O)Cc2c[nH]c3cc(F)ccc23)C1 (centres unmarked) [Compound 10124, 2-(6-fluoro-1H-indol-3-yl)-1-(3-(1-methoxyethyl)azetidin-1-yl)ethan-1-one]
1.56 | 10.15 | O=C(O)[C@H]1CCCCN1C(=O)Cc1c[nH]c2cc(F)ccc12 [Compound 10125]
4.22 | 13.7 | CCOC(=O)[C@@H]1CCCCN1C(=O)Cc1c[nH]c2cc(F)ccc12 [Compound 10126]
2.85 | 13.67 | CCOC(=O)[C@H]1CCCCN1C(=O)Cc1c[nH]c2cc(F)ccc12 [Compound 10128]
1.27 | 3.92 | O=C(O)C1CCN(C(=O)Cc2c[nH]c3cc(F)ccc23)CC1 [Compound 10129]
2.09 | 12.1 | CCOC(=O)CC1CCN(C(=O)Cc2c[nH]c3cc(F)ccc23)CC1 [Compound 10130]
2.17 | 20.77 | CC(O)C1CN(C(=O)Cc2c[nH]c3cc(F)ccc23)C1 (centres unmarked) [Compound 10131, 2-(6-fluoro-1H-indol-3-yl)-1-(3-(1-hydroxyethyl)azetidin-1-yl)ethan-1-one]
2.01 | 13.29 | CCOC(=O)C1CCN(C(=O)Cc2c[nH]c3cc(F)ccc23)CC1 [Compound 10132]
2.1 | 13.32 | COCC1(C)CN(C(=O)Cc2c[nH]c3cc(F)ccc23)C1 [Compound 10134, 2-(6-fluoro-1H-indol-3-yl)-1-(3-(methoxymethyl)-3-methylazetidin-1-yl)ethan-1-one]
1.98 | 14.25 | CC(=O)C1CN(C(=O)Cc2c[nH]c3cc(F)ccc23)C1 [Compound 10138]
1.93 | 4.54 | CC(=O)N[C@H]1CCCN(C(=O)Cc2c[nH]c3cc(F)ccc23)C1 [Compound 10139, (S)—N-(1-(2-(6-fluoro-1H-indol-3-yl)acetyl)piperidin-3-yl) acetamide]
1.93 | 9.44 | CC1CN(C(=O)Cc2n[nH]c3cc(F)ccc23)C1 [Compound 10144, 2-(6-fluoro-1H-indazol-3-yl)-1-(3-methylazetidin-1-yl)ethan-1-one]
1.64 | 16.13 | O=C1CN(C(=O)Cc2c[nH]c3cc(F)ccc23)CCN1 [Compound 10145]
1.56 | 9.75 | CN1CCN(C(=O)Cc2c[nH]c3cc(F)ccc23)CC1=O [Compound 10146]
2.3 | 19.87 | O=C(Cc1c[nH]c2cc(F)ccc12)N1CCO[C@@H](CO)C1 [Compound 10147, (R)-2-(6-fluoro-1H-indol-3-yl)-1-(2-(hydroxymethyl)morpholino) ethan-1-one]
1.87 | 12.46 | O=C(Cc1c[nH]c2cc(F)ccc12)N1CCO[C@H](CO)C1 [Compound 10148]

19F DLB Score (HRas^G12V [1]) | 19F T2-CPMG Score (HRas^G12V [2]) | SMILES
1.62 | 8.16 | COC[C@H]1CN(C(=O)Cc2c[nH]c3cc(F)ccc23)CCO1 [Compound 10154, (R)-2-(6-fluoro-1H-indol-3-yl)-1-(2-(methoxymethyl)morpholino)ethan-1-one]
2.07 | 7.87 | CCOC(=O)[C@@H]1CCCN(C(=O)Cc2c[nH]c3cc(F)ccc23)C1 [Compound 10161]
3.19 | 16.59 | CCC(C(=O)N1CC(C)C1)c1c[nH]c2cc(F)ccc12 (centres unmarked) [Compound 11005]
1.86 | 16.89 | CC(C)(C)OC(=O)N1CCC(C(=O)N2CCC(c3c[nH]c4cc(F)ccc34)CC2)C1 (centres unmarked) [Compound 11017]
2.51 | 9.96 | O=C(c1ccc(F)cc1F)N1CCC(c2c[nH]c3cc(F)ccc23)C1 (centres unmarked) [Compound 11018]
2.2 | 12.9 | O=C(C1CCC(O)CC1)N1CCC(c2c[nH]c3cc(F)ccc23)C1 (centres unmarked) [Compound 11019]
2.23 | 15.24 | CC(=O)Nc1cccc(C(=O)N2CCC(c3c[nH]c4cc(F)ccc34)CC2)c1 [Compound 11020]
3.35 | 39.09 | O=C(c1ccccc1)N1CCC(c2c[nH]c3cc(F)ccc23)C1 (centres unmarked) [Compound 11021]
3.43 | 5.71 | O=C(c1cccc(F)c1)N1CCC(c2c[nH]c3cc(F)ccc23)C1 (centres unmarked) [Compound 11022]
3.07 | 16.39 | CC(=O)Nc1cccc(C(=O)N2CCC(c3c[nH]c4cc(F)ccc34)C2)c1 (centres unmarked) [Compound 11023]
1.89 | 9.57 | CC(=O)N1CCC(C(=O)N2CCC(c3c[nH]c4cc(F)ccc34)C2)CC1 (centres unmarked) [Compound 11024]
2.48 | 13.23 | O=C(C1CCC(O)CC1)N1CCC(c2c[nH]c3cc(F)ccc23)CC1 (centres unmarked) [Compound 11027]
1.93 | 10.24 | CC(=O)N1CCC(C(=O)N2CCC(c3c[nH]c4cc(F)ccc34)CC2)CC1 [Compound 11029]
2.9 | 21.82 | CN(C)Cc1ccc(NC(=O)C(C#N)c2c[nH]c3cc(F)ccc23)cc1 (centres unmarked) [Compound 11030]
1.97 | 38.39 | N#CC(C(=O)N[C@@H](Cc1ccc(O)cc1)C(=O)O)c1c[nH]c2cc(F)ccc12 (some centres unmarked) [Compound 11031]
1.7 | 39.41 | CC1CN(C(=O)C(CC(=O)O)c2c[nH]c3cc(F)ccc23)C1 (centres unmarked) [Compound 11034]
1.76 | 19.33 | O=C(C1CCNC1)N1CCC(c2c[nH]c3cc(F)ccc23)C1 (centres unmarked) [Compound 11036]
2.12 | 16.77 | O=C(C1CCCNC1)N1CCC(c2c[nH]c3cc(F)ccc23)C1 (centres unmarked) [Compound 11037]
2.77 | 16.24 | O=C(O)CC(c1ccccc1F)c1c[nH]c2cc(F)ccc12 (centres unmarked) [Compound 11044]

SMILES | 19F DLB Score (HRas^G12V [1]) | 19F T2-CPMG Score (HRas^G12V [2])
COC(=O)[C@@H]1CN(C)CCN1C(=O)Cc1c[nH]c2cc(F)ccc12 [Compound 10167] | 3.62 | 5.07
Fc1ccc2c(C3CCNCC3)c[nH]c2c1 [Compound 11012] | 2.58 | 13.63
